Assay results as given in patent US6337317B1, “Antimicrobial peptides and methods of use thereof” (priority 2000, dated 2002).
Where a SMILES comes first, the peptide text is derived from it.

What was measured:
Candida albicans = assay type: cell-based; conditions: Candida albicans clinical lab isolate
Protocol: (§1) The biological activity of the peptides can be determined by standard methods known to those of skill in the art, such as a “minimal inhibitory concentration” (MIC) assay (see Wu and Hancock (1999) J. Biol Chem. 274:29-35 and Examples section). A MIC assay allows the determination of the lowest concentration of peptide that inhibits the multiplication and growth of mircoorganisms. Changes in the microorganism population are assessed by measuring the optical density (OD) of the population in broth or medium. Peptide MIC's can be determined for a variety of micoorganisms under a variety of conditions. Another assay for the biological activity of the peptides is a “fractional inhibitory concentration” (FIC) assay. This assay is especially useful for determining synergistic effects between the peptides of the invention, and between invention peptides and other compounds such as known antibiotics. A FIC assay employs the strategy of a MIC assay with additional variable(s), e.g., known antibiotics. One type of FIC assay is performed in a microwell plate containing microorganisms in broth. Peptides, in a range of dilutions, is added to each well following a patter of one dimension of the microwell plate, and antibiotics, in the other dimension. The FIC is calculated by looking at the impact of an antibiotic on the MIC of the peptide and the reciprocal relationship. […] Preferably, an FIC of less than 0.5 is obtained for synergism. As used herein, FIC can be determined as follows:
(§2) The bacterial strains used for antimicrobial activity assays included E. coli UB1005 (F^−, nalA37, metB1) and its outer membrane deficient mutant DC2 (16), E. coli KF130 (gyrA) (Hooper et al. (1987) Am. J. Med. 82:(Suppl. 4A),12-20), wild tppe strains of S. typhimurium 14028s (Fields et al. (1989) Science 243:1059-1062), S. aureus ATCC25923, S. aureus SAP0017 and R147. Also included was a clinical isolate of S. epidermidis were obtained from Dr. D. Speert, Department of Medicine, University of British Columbia, and P. aeruginosa PAO1 (Hancock and Carey (1979) J. Bacteriol. 140:902-910), H374 and H744 (Poole et al. (1993) J. Bacterial.175:7363-7372.) and E. faecalis ATCC 29212. Antifungal activity was tested using a clinical lab isolate of Candida albicans. All the strains were grown in Mueller Hinton (MH) broth (Difco Laboratories, Detroit, Mich.) at 37° C. unless otherwise indicated. The lipopolysaccharides (LPS) of E. coli UB1005 and P. aeruginosa H103 used for the dansyl-polymyxin B replacement assay were isolated as described by Moore et al. ((1986) Antimicrobial. Agents Chemother. 29:496-500). Polymyxin B, 1-N-phenylnapthylamine (NPN), carbonyl cyanide-m-chlorophenyl hydrazone (CCCP), Re LPS from S. Minnesota R595 (Re mutant) and LPS from E. coli 0111 :B4 were purchased from Sigma Chemicals Co. (St. Louis, Mo.). Dansyl polymyxin B was synthesized as described previously (Moore et al. (1986) Antimicrobial. Agents Chemother. 29:496-500). The lipids 1-pamitoyl-2-oleoyl-sn-glycero-3-phosphocholine (POPC), 1-palmitoyl-2-oleoyl-sn-glycero-3-phosphoglycerol (POPG), 1-palmitoyl-2-oleoyl-sn-glycero-3-phosphoethanolamine (POPE) and phosphatidylglycerol from egg yolk (egg-PG) were purchased from Avanti Polar Lipids Inc. (Alabaster, Ala.). The fluorescent dye 3,3-dipropylthiacarbocyanine (diSC35) was purchased from Molecular Probes (Eugene, Oreg.).
(§3) MIC Assay p The minimum inhibitory concentrations of (MIC) of several invention peptides were determined using methods described elsewhere (Wu and Hancock, (1999) J. Biol Chem. 274:29-35). Cells were grown overnight at 37EC in LB-S (Luria broth without any salt supplement) and diluted one in 10,000 in the same medium to give concentrations of about 10^4 to 10^5 CFU/ml. The broth dilutions were set up in a 96-well microtiter plate by putting 200 μl of LB-S containing the initial concentration of antibiotic or compound in column 1 and 100 Φl of the same medium in columns 2-12. […]

Enterococcus facaelis = assay type: cell-based
Protocol: as §1, §2, §3

Escherichia coli UB1005 = assay type: cell-based
Protocol: as §1, §2, §3

[1] = test system: Pseudomonas aeruginosa PAO1; assay type: cell-based
Protocol: as §1, §2, §3

[2] = test system: Salmonella typhimurium 14028s; assay type: cell-based
Protocol: as §1, §2, §3

[3] = test system: Staphylococcus aureus ATCC 25923; assay type: cell-based
Protocol: as §1, §2, §3

[4] = test system: Staphylococcus epidermidis; assay type: cell-based; conditions: Staphylococcus epidermidis clinical isolate
Protocol: as §1, §2, §3

[5] = test system: intact cells of E. coli UB1005; assay: NPN uptake assay, outer membrane permeabilization; assay type: cell-based, Escherichia coli; conditions: peptide concentration leading to 50% of maximal increase in NPN uptake
Protocol: The outer membrane permeabilization activity of invention peptides was determined by the 1-N-phenylnapthylamine (NPN) uptake assay of Loh et al. ((1984) Antimicor. Agents Chemother. 26:546-551), using intact cells of E. coli UB1005.
The cytoplasmic membrane depolarization activity of the peptides was determined (Wu and Hancock (1999) J. Biol. Chem. 274:29-35) using the membrane potential sensitive dye 3,3-dipropylthiacarbocyanine diSC35 (28) and E. coli DC2. Bacterial cells in mid-log phase were centrifuged, washed in 5 mM HEPES, pH 7.8, and resuspended in the same buffer to an OD600 of 0.05. A stock solution of diSC35 was added to a final concentration of 0.4 μM and quenching was allowed to occur at room temperature for 20-30 min. Then KCl was added to the cell suspension to a final concentration of 100 mM to equilibrate the cytoplasmic and external K^+ concentrations. A 2-mL cell suspension was placed in a 1 cm cuvette and the desired concentration of tested peptide was added. Changes in fluorescence due to the disruption of the membrane potential in the cytoplasmic membrane were continuously recorded using a Perkin-Elmer model 650-10S spectrofluorimeter at an excitation wavelength of 622 nm and an emission wavelength of 670 nm. The concentration of peptide leading to a 50% of maximal increase in NPN uptake was recorded as the P50.
Therefore, an increase in fluorescence in the presence of a peptide indicates the ability of peptide to permeabilize the bacterial outer membrane.

For `CC(C)[C@@H]1NC(=O)[C@H](CCCNC(=N)N)NC(=O)[C@H](Cc2ccccc2)NC(=O)[C@@H](NC(=O)[C@H](Cc2c[nH]c3ccccc23)NC(=O)[C@H](CCCNC(=N)N)NC(=O)[C@@H](N)CCCNC(=N)N)CSSC[C@@H](C(=O)N[C@@H](CCCNC(=N)N)C(N)=O)NC(=O)[C@H](CCCCN)NC(=O)[C@H](CCCNC(=N)N)NC(=O)[C@H](Cc2ccc(O)cc2)NC(=O)[C@@H]2CSSC[C@H](NC1=O)C(=O)N[C@@H](Cc1ccc(O)cc1)C(=O)N[C@@H](CCCNC(=N)N)C(=O)NCC(=O)N[C@@H](Cc1ccccc1)C(=O)N2` [Polyphemusin I] (HELM PEPTIDE1{R.R.W.C.F.R.V.C.Y.R.G.F.C.Y.R.K.C.R.[am]}$PEPTIDE1,PEPTIDE1,4:R3-17:R3|PEPTIDE1,PEPTIDE1,8:R3-13:R3$$$V2.0; N-terminus and C-terminus assumed), the MIC (Candida albicans) was 1 µg/mL, the MIC (Enterococcus facaelis) was 0.25 µg/mL and the MIC (Escherichia coli UB1005) was 0.125 µg/mL. It also gave an MIC [1] of 0.25 µg/mL, an MIC [2] of 0.25 µg/mL and an MIC [3] of 0.5 µg/mL. For the same molecule, the MIC [4] was 0.25 µg/mL and the P50 [5] was 2.8 µg/mL.
